Assay in all cases: filter binding kinase assay
Type in all cases: biochemical

The target of one experiment is T1, MAP4K2 (GCK) (Homo sapiens, UniProt Q12851).
T1 construct: purchased
T1 sequence (Q12851 1-820): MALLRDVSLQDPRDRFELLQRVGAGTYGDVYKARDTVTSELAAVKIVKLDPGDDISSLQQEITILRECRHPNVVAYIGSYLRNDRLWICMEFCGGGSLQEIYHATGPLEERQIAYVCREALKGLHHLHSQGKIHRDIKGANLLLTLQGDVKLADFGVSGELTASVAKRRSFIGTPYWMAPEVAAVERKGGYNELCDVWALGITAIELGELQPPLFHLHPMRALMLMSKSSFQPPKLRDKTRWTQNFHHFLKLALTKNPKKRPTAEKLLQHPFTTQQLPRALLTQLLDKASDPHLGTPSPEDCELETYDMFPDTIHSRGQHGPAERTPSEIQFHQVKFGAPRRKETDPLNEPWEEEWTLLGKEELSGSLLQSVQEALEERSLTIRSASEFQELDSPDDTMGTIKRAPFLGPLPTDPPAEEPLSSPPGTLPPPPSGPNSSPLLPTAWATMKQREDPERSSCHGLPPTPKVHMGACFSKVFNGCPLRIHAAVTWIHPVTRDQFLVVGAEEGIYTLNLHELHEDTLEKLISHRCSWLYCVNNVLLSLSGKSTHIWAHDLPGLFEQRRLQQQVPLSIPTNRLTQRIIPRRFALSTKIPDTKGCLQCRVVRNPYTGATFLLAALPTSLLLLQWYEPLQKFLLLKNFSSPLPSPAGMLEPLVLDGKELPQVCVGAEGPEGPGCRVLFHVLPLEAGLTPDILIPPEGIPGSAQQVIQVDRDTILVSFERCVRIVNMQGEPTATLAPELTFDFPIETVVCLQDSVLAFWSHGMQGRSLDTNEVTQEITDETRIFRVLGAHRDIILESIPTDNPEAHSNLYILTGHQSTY
The conditions noted are these: for IC50: derived from % inhibition at 1 μM. In outline: (§1)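 Kinase activity is measured at room temperature by filter binding, with incorporated radiolabel counted after acid termination. A 5-minute preincubation of compound, enzyme and substrate precedes addition of ATP from a kinase-dependent stock (5, 20 or 50 […]).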

The target in the next experiment is T2, MARK3 (Homo sapiens, UniProt P27448).
T2 construct: purchased
T2 sequence (P27448 whole entry, species assumed): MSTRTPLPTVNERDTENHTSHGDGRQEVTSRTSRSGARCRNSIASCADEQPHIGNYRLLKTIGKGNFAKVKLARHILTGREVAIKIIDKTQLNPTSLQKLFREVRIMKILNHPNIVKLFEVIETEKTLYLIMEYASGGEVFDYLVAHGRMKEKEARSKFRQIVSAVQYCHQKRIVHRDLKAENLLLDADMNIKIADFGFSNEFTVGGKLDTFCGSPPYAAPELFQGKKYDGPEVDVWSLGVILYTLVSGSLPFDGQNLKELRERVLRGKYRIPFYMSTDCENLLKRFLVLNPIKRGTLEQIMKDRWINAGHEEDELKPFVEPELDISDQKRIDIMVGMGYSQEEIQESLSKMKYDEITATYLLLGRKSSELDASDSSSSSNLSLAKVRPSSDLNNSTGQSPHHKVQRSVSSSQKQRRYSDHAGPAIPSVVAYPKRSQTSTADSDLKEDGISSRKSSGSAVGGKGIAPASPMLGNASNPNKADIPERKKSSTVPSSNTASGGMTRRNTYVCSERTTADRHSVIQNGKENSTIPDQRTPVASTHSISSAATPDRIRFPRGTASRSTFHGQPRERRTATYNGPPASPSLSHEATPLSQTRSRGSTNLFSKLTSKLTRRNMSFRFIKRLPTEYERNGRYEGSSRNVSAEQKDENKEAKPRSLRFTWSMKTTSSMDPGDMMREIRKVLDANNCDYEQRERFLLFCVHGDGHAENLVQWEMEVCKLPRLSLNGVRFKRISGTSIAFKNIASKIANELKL
Conditions: for IC50: derived from % inhibition at 1 μM. In outline: as §1

The next experiment has as its target T3, PIM3 (Homo sapiens, UniProt Q86V86).
T3 construct: purchased
The conditions noted are these: derived from % inhibition at 1 μM. An outline of the steps:
as §1

In the next experiment the target is T4, RPS6KB1 (Homo sapiens, UniProt P23443).
T4 construct: purchased
T4 sequence (P23443 whole entry, species assumed): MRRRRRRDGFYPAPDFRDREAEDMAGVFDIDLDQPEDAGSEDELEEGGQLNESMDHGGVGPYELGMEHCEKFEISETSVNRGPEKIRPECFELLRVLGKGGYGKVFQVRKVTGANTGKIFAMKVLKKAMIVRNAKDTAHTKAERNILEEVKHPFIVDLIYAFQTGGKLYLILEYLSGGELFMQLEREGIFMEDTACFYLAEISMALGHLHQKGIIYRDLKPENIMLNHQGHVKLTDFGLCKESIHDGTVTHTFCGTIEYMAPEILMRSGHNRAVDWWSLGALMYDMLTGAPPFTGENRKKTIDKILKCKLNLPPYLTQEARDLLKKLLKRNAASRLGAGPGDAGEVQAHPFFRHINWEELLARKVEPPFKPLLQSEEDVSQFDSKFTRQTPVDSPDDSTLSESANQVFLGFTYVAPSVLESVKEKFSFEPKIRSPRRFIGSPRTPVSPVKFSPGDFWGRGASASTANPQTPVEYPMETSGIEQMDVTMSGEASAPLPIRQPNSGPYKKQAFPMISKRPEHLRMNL
Conditions: derived from % inhibition at 1 μM. In outline:
as §1

For a further experiment, the target named is T5, STK11 (Homo sapiens, UniProt Q15831).
T5 construct: purchased
T5 sequence (Q15831 1-433): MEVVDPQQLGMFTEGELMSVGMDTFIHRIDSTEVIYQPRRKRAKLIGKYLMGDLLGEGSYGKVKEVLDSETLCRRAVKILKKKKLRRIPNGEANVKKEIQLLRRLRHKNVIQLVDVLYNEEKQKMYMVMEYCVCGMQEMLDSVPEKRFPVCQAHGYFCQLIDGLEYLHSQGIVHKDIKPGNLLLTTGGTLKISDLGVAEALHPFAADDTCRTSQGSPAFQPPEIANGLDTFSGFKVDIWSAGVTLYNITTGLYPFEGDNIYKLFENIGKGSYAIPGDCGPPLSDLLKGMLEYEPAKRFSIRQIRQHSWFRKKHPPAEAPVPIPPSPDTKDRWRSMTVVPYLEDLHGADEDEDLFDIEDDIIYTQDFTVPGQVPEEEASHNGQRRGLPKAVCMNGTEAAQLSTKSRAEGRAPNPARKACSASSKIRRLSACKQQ
T5 sequence (Q7RTN6 1-431 partner): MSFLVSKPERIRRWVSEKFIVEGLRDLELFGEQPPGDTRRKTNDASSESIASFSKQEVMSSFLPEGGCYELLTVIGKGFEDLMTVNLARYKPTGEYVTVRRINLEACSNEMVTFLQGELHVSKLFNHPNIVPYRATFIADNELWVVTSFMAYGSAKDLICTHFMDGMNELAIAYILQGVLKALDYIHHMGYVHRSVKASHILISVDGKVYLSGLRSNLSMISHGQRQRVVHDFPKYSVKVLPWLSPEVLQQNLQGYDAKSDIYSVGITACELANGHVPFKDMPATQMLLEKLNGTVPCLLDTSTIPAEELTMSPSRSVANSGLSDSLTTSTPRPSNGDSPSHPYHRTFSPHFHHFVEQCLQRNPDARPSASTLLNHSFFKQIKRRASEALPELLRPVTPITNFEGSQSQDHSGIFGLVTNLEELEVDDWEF
T5 sequence (Q9Y376 1-341 partner): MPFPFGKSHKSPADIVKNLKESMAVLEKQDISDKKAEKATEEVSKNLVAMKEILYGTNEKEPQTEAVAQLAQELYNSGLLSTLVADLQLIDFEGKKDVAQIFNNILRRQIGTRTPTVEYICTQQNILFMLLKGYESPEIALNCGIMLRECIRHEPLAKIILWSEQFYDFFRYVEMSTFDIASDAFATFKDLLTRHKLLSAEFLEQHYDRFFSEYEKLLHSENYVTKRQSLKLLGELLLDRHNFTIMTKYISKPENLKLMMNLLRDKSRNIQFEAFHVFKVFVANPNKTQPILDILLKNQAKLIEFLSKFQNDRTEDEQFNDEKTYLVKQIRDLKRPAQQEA
Conditions: derived from % inhibition at 1 μM. In outline: as §1

Another experiment addresses T6, TGFBR1 (Homo sapiens, UniProt P36897).
T6 construct: purchased
T6 sequence (P36897 34-503): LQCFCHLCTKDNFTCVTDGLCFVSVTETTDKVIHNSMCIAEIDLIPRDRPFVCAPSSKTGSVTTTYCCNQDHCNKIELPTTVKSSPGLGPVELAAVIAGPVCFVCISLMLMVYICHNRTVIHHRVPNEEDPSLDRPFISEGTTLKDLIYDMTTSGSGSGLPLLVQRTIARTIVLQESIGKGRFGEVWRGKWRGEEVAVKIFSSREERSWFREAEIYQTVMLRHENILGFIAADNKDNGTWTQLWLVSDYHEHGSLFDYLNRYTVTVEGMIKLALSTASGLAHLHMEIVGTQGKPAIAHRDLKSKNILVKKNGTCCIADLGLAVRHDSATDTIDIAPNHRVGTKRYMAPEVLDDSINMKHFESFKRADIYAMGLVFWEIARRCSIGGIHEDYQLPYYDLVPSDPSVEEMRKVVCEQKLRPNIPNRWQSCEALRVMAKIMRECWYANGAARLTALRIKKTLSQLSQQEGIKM
Conditions: derived from % inhibition at 1 μM. An outline of the steps: as §1

As to `c1ccc(Cc2c[nH]c3ncsc23)cc1` [Compound A7, 6-benzyl-4H-pyrrolo[2,3-d]thiazole], the concentration for half-maximal inhibition (IC50) at MAP4K2 (GCK) lay in the range of 1 to 10 µM; at MARK3, 1 to 10 µM; at PIM3 it was 1 to 10 µM; at RPS6KB1, 1 to 10 µM; on STK11 it was 10 to 100 µM; at TGFBR1, 10 to 100 µM.
`Nc1ncsc1C#Cc1cnc2[nH]ccc2c1` [Compound A22, 5-(1H-pyrrolo[2,3-b]pyridin-5-ylethynyl)thiazol-4-ylamine]: the IC50 is 0.01 to 1 µM on MAP4K2 (GCK); 0.01 to 1 µM at MARK3; 10 to 100 µM at PIM3; 1 to 10 µM at RPS6KB1; greater than 1 µM on STK11; 10 to 100 µM on TGFBR1. Also, the remaining activity at 1 µM worked out at 31% on MAP4K2 (GCK) (read-out: residual kinase activity GCK) and 15% on MARK3 (read-out: residual kinase activity MARK3).
In the case of `CC(C)(C)OC(=O)Nc1nc(-c2ccncc2)sc1C#CCN1CCOCC1` [Compound A25, tert-butyl[5-(3-morpholin-4-ylprop-1-ynyl)-2-pyridin-4-ylthiazol-4-yl]-carbamate], the IC50 on MAP4K2 (GCK) was greater than 1 µM; on MARK3 it was greater than 1 µM; on PIM3 it was greater than 1 µM; at RPS6KB1, greater than 1 µM; on STK11 it was greater than 1 µM; at TGFBR1, 1 to 10 µM.
Take `CC(C)(C)OC(=O)Nc1ncsc1C#CCN1C(=O)c2ccccc2C1=O` [Compound A26, tert-butyl{5-[3-(1,3-dioxo-1,3-dihydroisoindol-2-yl)prop-1-ynyl]-thiazol-4-yl}carbamate]: the IC50 on MAP4K2 (GCK) was 1 to 10 µM; on MARK3, 1 to 10 µM; on PIM3, greater than 1 µM; at RPS6KB1, greater than 1 µM; at STK11 it was 10 to 100 µM; on TGFBR1, 10 to 100 µM.
Consider `Nc1ncsc1C#Cc1cccc(O)c1` [Compound A27, 3-(4-aminothiazol-5-ylethynyl)phenol], for which the IC50 on MAP4K2 (GCK) is 1 to 10 µM; on MARK3 it was 10 to 100 µM; at PIM3, 1 to 10 µM; at RPS6KB1 it was 1 to 10 µM; at STK11 it was greater than 1 µM; at TGFBR1, 1 to 10 µM.

The values above are taken from patent publication US8703961B2, “Thiazole derivatives for the treatment of diseases such as cancer” (Merck Patent GmbH, priority 2009, dated 2014).
